According to PMC3465557, “Mixed antagonistic effects of the ginkgolides at recombinant human ρ1 GABAC receptors” (Neuropharmacology, 2012):

Experiments:
Type in all cases: cell-based
[1] = molecular target: T1, recombinant human ρ1 GABAC receptors (Homo sapiens, UniProt P24046); assay: Inhibition curves: ginkgolides co-applied with a fixed GABA concentration, two-electrode voltage clamp in Xenopus oocytes
T1 construct: expressed in transfected cells; host or cells: Xenopus laevis oocytes (cRNA injection)
Procedure: (§1) Human ρ1 GABAC receptor subunit cDNA was linearized using the restriction enzyme Xba 1 and transcribed using the “mMESSAGE mMACHINE” kit (Ambion Inc., Austin, TX, USA). RNA (10 ng/50 nl) was injected into the cytoplasm of defollicated oocytes using a 15–20 μm diameter tip glass micropipette Nanoject injector (Drummond Scientific Co., Broomali, PA, USA). The oocytes were incubated for 2–7 days at 18 °C in ND96 buffer with a twice-daily change of buffer.
(§2) Whole-cell currents from homomeric ρ1 GABAC receptors expressed in oocytes were recorded using two-electrode voltage clamp. Recording microelectrodes were fabricated with a micropipette puller (Narishige Scientific Instrument Lab, Tokyo, Japan) and filled with 3 M KCl solution. Oocytes were clamped at −60 mV and continuously superfused with ND96 buffer. […] […]. Co-applications of ginkgolides were interleaved with test applications of GABA alone to monitor the response throughout the experiment. […] A washout period of 3–5 min was allowed between each application.
(§3) Analysis and curve fitting was performed using GraphPad Prism v3.02 (GraphPad Software, San Diego, California, USA). […] […]. […] Unless otherwise noted, parameters were calculated from individual oocytes and then averaged.

[2] = molecular target: T1, recombinant human ρ1 GABAC receptors; assay: GABA concentration–response curves in the presence and absence of ginkgolides, two-electrode voltage clamp in Xenopus oocytes; conditions: for type of antagonism: from GABA concentration–response and inhibition curves
Procedure: as §1, §2, §3

[3] = molecular target: T1, recombinant human ρ1 GABAC receptors; assay: Use-dependence: repeated co-applications with GABA during extended incubation of ginkgolide; conditions: for use-dependence: repeated co-applications
Procedure: as §2
Fig. 5 Use-dependent effect in the antagonism of ρ1 GABAC receptors by ginkgolides. A. Examples of currents recorded during repeated co-applications of GABA and ginkgolides. […] Each application was separated by a 3-min interval. […]. […] Overall, there was no obvious evidence for use-dependent inhibition by the ginkgolides.

[4] = molecular target: T1, recombinant human ρ1 GABAC receptors; assay: Fit of kinetic schemes 1-4 to equilibrium GABA concentration–response curves
Description: The concentration–response curves were fitted with the different mechanisms of inhibition using a least squares non-linear regression in GraphPad Prism.
The mechanism used (Fig. 7, Scheme 1) is that of [Amin and Weiss (1996)], where there are five equivalent agonist binding sites and three sites need to be occupied to activate the receptor, leading to a single open state. […] This assumes five equivalent agonist binding sites but only three are required to be occupied to activate (open) the channel pore. All subsequent kinetic schemes are derivatives of the linear scheme, by incorporating different possible mechanisms for antagonism by ginkgolides. These are drawn from the cyclic mixed-antagonism mechanism described by [Smart and Constanti (1986)]. Scheme 2 and scheme 3 both assume that ginkgolide binds to a single site in the receptor complex. […] For scheme 4, the equilibrium between the fully-liganded closed and open states is removed, which allows for the possibility that the ginkgolide binds to a separate site in the closed state compared to the open state.
Initially, a cyclic allosteric mechanism (Fig. 7, scheme 2) similar to that of [Smart and Constanti (1986)] was fit to the data. This scheme assumes a single binding site on the receptor complex that has an allosteric effect on all rate constants in the reaction mechanism. The scheme was fitted to the data allowing the agonist equilibrium constant, Ka, to be related to the equilibrium constant in the presence of ginkgolide, Ka′ by a constant ratio, R = Ka/Ka′. Similarly, the opening equilibrium constants E and E′ were related by the ratio, S = E/E′. […] As a test of the mechanism, the parameters obtained from the fit were used to predict the inhibition curves (Fig. 8D–F).
This effectively means that ginkgolide is binding at two separate sites. […] Scheme 4 is therefore functionally similar to scheme 2 with E′ having a value close to zero.

[5] = molecular target: T1, recombinant human ρ1 GABAC receptors; assay: Inhibition and recovery time when ginkgolide is co-applied during the plateau of the GABA-activated current
Procedure: as §2
The recovery time from inhibition (measured as the 10–90% rise interval) was determined from the current responses obtained when ginkgolides A, B and C were co-applied during the plateau of the GABA-activated current (Fig. 6). […].
Fig. 6 Recovery time from ginkgolide inhibition.

[6] = Hill coefficient of GABA curve with 10 μM antagonist
[7] = Hill coefficient of GABA curve with 30 μM antagonist
[8] = Hill coefficient of GABA curve with 100 μM antagonist
[9] = in the presence of 10 μM ginkgolide
[10] = in the presence of 30 μM ginkgolide
[11] = in the presence of 100 μM ginkgolide

T1 sequence (P24046 22-479): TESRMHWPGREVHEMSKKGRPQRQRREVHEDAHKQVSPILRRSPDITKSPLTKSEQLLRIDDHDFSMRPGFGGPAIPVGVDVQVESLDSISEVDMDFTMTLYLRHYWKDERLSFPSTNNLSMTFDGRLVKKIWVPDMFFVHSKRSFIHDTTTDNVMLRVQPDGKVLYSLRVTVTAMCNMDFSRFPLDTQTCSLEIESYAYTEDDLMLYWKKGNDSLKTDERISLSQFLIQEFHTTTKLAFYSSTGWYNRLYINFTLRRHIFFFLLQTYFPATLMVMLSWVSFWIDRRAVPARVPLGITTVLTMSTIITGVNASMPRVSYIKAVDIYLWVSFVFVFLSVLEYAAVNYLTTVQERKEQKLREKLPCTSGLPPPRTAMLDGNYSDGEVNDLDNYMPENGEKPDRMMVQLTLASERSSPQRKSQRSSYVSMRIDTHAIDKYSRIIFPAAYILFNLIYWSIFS

In the case of C[C@@H]1C(=O)O[C@H]2C[C@@]34[C@H]5C[C@@H](C(C)(C)C)[C@]36[C@@H](OC(=O)[C@@H]6O)O[C@@]4(C(=O)O5)[C@]21O [Ginkgolide A, ginkgolide A], the “nH of inhibition curve” value ([1]; 0.5 μM GABA) is reported as −0.99 ± 0.08, the “nH of inhibition curve” value ([1]; 1.2 μM GABA) is reported as −0.82 ± 0.07 and the “nH of inhibition curve” value ([1]; 3.0 μM GABA) is reported as −0.61 ± 0.03. For the same compound, the “nH of inhibition curve” value ([1]; 10 μM GABA) was −0.73 ± 0.04, the IC50 ([1]; IC50, 0.5 μM GABA) was 5.74 ± 0.17 µM and the IC50 ([1]; IC50, 1.2 μM GABA) was 42.3 ± 5.76 µM. For the same compound, the IC50 ([1]; IC50, 3.0 μM GABA) was 182 ± 12.6 µM, the IC50 ([1]; IC50, 10 μM GABA) was 874 ± 108 µM and the “GABA + Ant nH” value [2, 6] was 1.98 ± 0.12. The “GABA + Ant nH” value [2, 7] was 2.25 ± 0.04, the “GABA + Ant nH” value [2, 8] was 2.60 ± 0.22 and the type of antagonism [2] was “mixed antagonists”. For the same compound, the “fold increase in the GABA EC50” value [2, 9] was 1.9 fold, the “fold increase in the GABA EC50” value [2, 10] was 2.3 fold and the “fold increase in the GABA EC50” value [2, 11] was 2.5 fold. For the same compound, the “Max. GABA response” value ([2]; with 10 μM antagonist) was 94.78 ± 0.54 %, the “Max. GABA response” value ([2]; with 30 μM antagonist) was 91.44 ± 0.80 % and the “Max. GABA response” value ([2]; with 100 μM antagonist) was 85.66 ± 1.34 %. For the same compound, the use-dependence ([3]; 5 μM ginkgolide, 1 μM GABA) was “not obviously use-dependent”, the inhibition at 5 µM ([3]; read-out: level of inhibition) was 33.2 ± 1.4% and the Kd ([4]; Kb0, Scheme 2, calculated) was 1.3 µM. It also gave a Kd ([4]; Kb0, Scheme 3, calculated) of 1.5 µM, a Kd ([4]; Kb0, Scheme 4, calculated) of 1.3 µM and a Kd ([4]; Kb3, Scheme 2, calculated) of 7.7 µM. For the same compound, the Kd ([4]; Kb3, Scheme 3, calculated) was 6790 µM, the Kd ([4]; Kb3, Scheme 4, printed with ±SE) was 7.7 ± 1.4 µM and the Kd ([4]; Kb4 (equilibrium constant of ginkgolide, open state), Scheme 2, fitted, Ka fixed 3.2 μM, E fixed 11) was 19.7 ± 3.9 µM. For the same compound, the Kd ([4]; Kb4 (equilibrium constant of ginkgolide, open state), Scheme 3, fitted, Ka fixed 3.2 μM, E fixed 11) was 611 ± 89 µM, the Kd ([4]; Kb4 (equilibrium constant of ginkgolide, open state), Scheme 4, fitted, Ka fixed 3.2 μM, E fixed 11) was 19.7 ± 3.9 µM and the “E′ (opening equilibrium constant with ginkgolide bound)” value ([4]; Scheme 2, calculated) was 4.3. The “Ka′ (agonist equilibrium constant with ginkgolide bound)” value ([4]; Scheme 2, calculated) was 5.7 µM, the “R (= Ka/Ka′)” value ([4]; Scheme 2, fitted) was 0.56 ± 0.03 and the “S (= E/E′)” value ([4]; Scheme 2, fitted) was 2.6 ± 0.2. For the same compound, the “E′ (opening equilibrium constant with ginkgolide bound)” value ([4]; Scheme 3, calculated) was 122, the “Ka′ (agonist equilibrium constant with ginkgolide bound)” value ([4]; Scheme 3, calculated) was 53.3 µM and the “R (= Ka/Ka′)” value ([4]; Scheme 3, fitted) was 0.06 ± 0.05. The “S (= E/E′)” value ([4]; Scheme 3, fitted) was 0.09 ± 0.22, the “Ka′ (agonist equilibrium constant with ginkgolide bound)” value ([4]; Scheme 4, calculated) was 5.7 µM and the “R (= Ka/Ka′)” value ([4]; Scheme 4, fitted) was 0.55 ± 0.03. For the same compound, the “Recovery time (10–90% rise interval)” value ([5]; 1 μM GABA, 5 μM ginkgolide) was 48.4 ± 5.7 s, the inhibition at 5 µM ([5]; 1 μM GABA, 5 μM ginkgolide) was 33.8 ± 3.4% and the “Recovery time (10–90% rise interval)” value ([5]; 3 μM GABA, 5 μM ginkgolide) was 14.3 ± 4.6 s. For the same compound, the inhibition at 5 µM ([5]; 3 μM GABA, 5 μM ginkgolide) was 15.9 ± 1.6%, the “Recovery time (10–90% rise interval)” value ([5]; 3 μM GABA, 50 μM ginkgolide) was 18.4 ± 3.4 s and the inhibition at 50 µM ([5]; 3 μM GABA, 50 μM ginkgolide) was 21.4 ± 1.9%.
In the case of ginkgolide B, the “fold more potent than ginkgolide A” value ([1]; 0.5 μM GABA) is reported as “approximately 7.7 fold”, the “fold more potent than ginkgolide C” value ([1]; 0.5 μM GABA) is reported as roughly 1.1 fold and the “nH of inhibition curve” value ([1]; 0.5 μM GABA) is reported as −0.87 ± 0.05. For the same compound, the “fold more potent than ginkgolide A” value ([1]; 1.2 μM GABA) was roughly 18 fold, the “fold more potent than ginkgolide C” value ([1]; 1.2 μM GABA) was roughly 2.3 fold and the “nH of inhibition curve” value ([1]; 1.2 μM GABA) was −0.97 ± 0.07. For the same compound, the “fold more potent than ginkgolide A” value ([1]; 3 μM GABA) was roughly 32 fold, the “fold more potent than ginkgolide C” value ([1]; 3 μM GABA) was roughly 3.8 fold and the “nH of inhibition curve” value ([1]; 3.0 μM GABA) was −0.78 ± 0.06. For the same compound, the “fold more potent than ginkgolide A” value ([1]; 10 μM GABA) was roughly 6.7 fold, the “fold more potent than ginkgolide C” value ([1]; 10 μM GABA) was roughly 4 fold and the “nH of inhibition curve” value ([1]; 10 μM GABA) was −0.83 ± 0.06. For the same compound, the “bottom plateau of the inhibition curve” value ([1]; 10 μM GABA, five out of seven oocytes, up to 3 mM) was “approximately 30 % of Imax”, the “GABA + Ant nH” value [2, 6] was 1.97 ± 0.10 and the “GABA + Ant nH” value [2, 7] was 1.83 ± 0.06. For the same compound, the “GABA + Ant nH” value [2, 8] was 1.61 ± 0.05, the type of antagonism [2] was “mixed antagonists” and the “fold increase in the GABA EC50” value [2, 9] was 3.2 fold. The “fold increase in the GABA EC50” value [2, 10] was 4.7 fold, the “fold increase in the GABA EC50” value [2, 11] was 7.5 fold and the “Max. GABA response” value ([2]; with 10 μM antagonist) was 80.65 ± 2.18 %. The “Max. GABA response” value ([2]; with 30 μM antagonist) was 75.12 ± 1.39 %, the “Max. GABA response” value ([2]; with 100 μM antagonist) was 69.56 ± 2.48 % and the level of inhibition ([3]; 5 μM ginkgolide, 1 μM GABA, five co-applications after 40 s preincubation) was 61.3 ± 1.7%. The use-dependence ([3]; 5 μM ginkgolide, 1 μM GABA) was “not obviously use-dependent”, the “E′ (opening equilibrium constant with ginkgolide bound)” value ([4]; Scheme 2, calculated) was 1.3 and the “Ka′ (agonist equilibrium constant with ginkgolide bound)” value ([4]; Scheme 2, calculated) was 8.3 µM. For the same compound, the “R (= Ka/Ka′)” value ([4]; Scheme 2, fitted) was 0.39 ± 0.02, the “S (= E/E′)” value ([4]; Scheme 2, fitted) was 8.6 ± 0.6 and the “E′ (opening equilibrium constant with ginkgolide bound)” value ([4]; Scheme 3, calculated) was 1 × 10^−9. The “Ka′ (agonist equilibrium constant with ginkgolide bound)” value ([4]; Scheme 3, calculated) was 12.9 µM, the “R (= Ka/Ka′)” value ([4]; Scheme 3, fitted) was 0.25 ± 0.01 and the “S (= E/E′)” value ([4]; Scheme 3, fitted) was 1.0 × 10^10 ± 1.4 × 10^16. The “Ka′ (agonist equilibrium constant with ginkgolide bound)” value ([4]; Scheme 4, calculated) was 8.3 µM, the “R (= Ka/Ka′)” value ([4]; Scheme 4, fitted) was 0.39 ± 0.02 and the “Inhibition (%)” value ([5]; 1 μM GABA, 5 μM ginkgolide) was 55.5 ± 3.4%. For the same compound, the “Recovery time (10–90% rise interval)” value ([5]; 1 μM GABA, 5 μM ginkgolide) was 42.8 ± 8.6 s, the “Inhibition (%)” value ([5]; 3 μM GABA, 5 μM ginkgolide) was 35.2 ± 6.8% and the “Recovery time (10–90% rise interval)” value ([5]; 3 μM GABA, 5 μM ginkgolide) was 21.3 ± 4.4 s. The “Inhibition (%)” value ([5]; 3 μM GABA, 50 μM ginkgolide) was 54.6 ± 7.5% and the “Recovery time (10–90% rise interval)” value ([5]; 3 μM GABA, 50 μM ginkgolide) was 29.4 ± 3.8 s.
